Results from patent US20050101595A1, “N-containing cycloalkyl-substituted amino-thiazole derivatives and pharmaceutical compositions for inhibiting cell proliferation and methods for their use” (PFIZER INC., priority 2003, published 2005).
Where a name gives a salt, the structure may show the parent alone. Read-outs that look alike come from different tables or passages of the source. Blank lines part the entries; values can stand above or below the molecule they belong to.

Legend:
CDK2/Cyclin A = CDK2/Cyclin A (Homo sapiens, UniProt P24941); experiment: Inhibition of CDK2/Cyclin A Retinoblastoma Kinase Activity; assay type: biochemical; conditions: for Ki: apparent Ki, CDK2/proteolyzed cyclin A, Rb fragment substrate, 25 μM ATP; for CDK2 % Inhibition At 0.03 μM: Table 2
Method in brief: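 Human CDK2, baculovirus/insect-cell expressed, complexed with proteolyzed cyclin A (10 nM or 19 nM CDK2) phosphorylates an Rb fragment with 25 μM [32P/33P]ATP at pH 7.4, 30° C, for 60 or 75 minutes under initial-rate conditions. Filter-captured radioactivity is read by phosphorimager; apparent Ki from competitive-inhibition fits.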

HCT-116 cell line = experiment: Inhibition of cell growth, tetrazolium salt (MTT) assay; assay type: cell-based; conditions: for IC50: Homo sapiens, HCT-116, 120 h, MTT, three to five days, read-out: HCT-116 IC50; for HCT-116 % Inhibition at 0.25 μM: 0.25 μM compound
Method in brief: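 Growth inhibition is scored relative to cells receiving only 0.5% (v/v) DMSO. Plated cells rest 4 h, then take compound for three to five days at 37° C; MTT reduction to formazan is read at 540 nm.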

[1] = target: human CDK4 and genetically truncated (1-264) cyclin D3 (Homo sapiens, UniProt P11802); experiment: Inhibition of CDK4/Cyclin D Retinoblastoma Kinase Activity; assay type: biochemical; conditions: for Ki: apparent Ki, CDK4/truncated cyclin D3, Rb fragment substrate, 25 μM ATP
Method in brief: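 Read-out: 32P/33P incorporation into Rb fragment (386-928) captured on nitrocellulose, phosphorimager. Enzyme 5 nM CDK4/cyclin D3(1-264) from insect cells; ATP 25 μM, pH 7.4, 30 °C, 20 min (60 min for tight binders). Ki from competitive fits.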

Chain of human CDK4 and genetically truncated (1-264) cyclin D3 (P11802 whole entry, the tested form may be a part): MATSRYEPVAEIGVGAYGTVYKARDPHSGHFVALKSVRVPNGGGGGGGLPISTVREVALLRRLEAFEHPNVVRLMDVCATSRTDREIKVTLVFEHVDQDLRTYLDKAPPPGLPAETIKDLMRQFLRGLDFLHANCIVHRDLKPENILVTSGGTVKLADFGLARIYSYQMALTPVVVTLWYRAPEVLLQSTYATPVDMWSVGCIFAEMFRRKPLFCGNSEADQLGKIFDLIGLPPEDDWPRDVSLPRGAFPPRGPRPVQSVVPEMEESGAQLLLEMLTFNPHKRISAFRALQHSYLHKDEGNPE
Chain of human CDK4 and genetically truncated (1-264) cyclin D3 (P30281 1-264 partner): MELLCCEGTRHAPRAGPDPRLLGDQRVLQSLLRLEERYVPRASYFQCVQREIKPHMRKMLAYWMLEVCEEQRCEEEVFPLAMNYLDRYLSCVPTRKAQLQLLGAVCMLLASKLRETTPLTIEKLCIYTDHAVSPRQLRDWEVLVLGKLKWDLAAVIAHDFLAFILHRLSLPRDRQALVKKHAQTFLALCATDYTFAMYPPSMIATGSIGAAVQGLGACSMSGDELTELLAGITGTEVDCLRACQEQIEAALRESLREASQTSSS

CDK2 % Inhibition At 0.03 μM (CDK2/Cyclin A; 0.03 μM compound, 0.03 µM): 27%
CDK4 % Inhibition at 0.03 μM ([1]; 0.03 μM compound, Table 2, 0.03 µM): 12%
SMILES: CC(NC(=O)N1CCC(Nc2nc(N)c(C(=O)c3c(F)cccc3F)s2)CC1)c1ccccc1 (stereo not shown) [Example O28]
HCT-116 % Inhibition at 0.25 μM (HCT-116 cell line; HCT-116, Table 2, 0.25 µM): 43%

CDK2 % Inhibition at 0.03 μM (CDK2/Cyclin A; 0.03 μM compound, Table 4): −23%
CDK4 % Inhibition at 0.03 μM ([1]; 0.03 μM compound, Table 4): 14%
SMILES: COc1ccc(C(=O)N2CCC(Nc3nc(N)c(C(=O)c4c(F)cccc4F)s3)CC2)cc1OC [Example Q21]
HCT-116 % Inhibition at 0.1 μM (HCT-116 cell line; 0.1 μM compound, HCT-116, Table 4): 16%
HCT-116 % Inhibition at 0.25 μM (HCT-116 cell line; HCT-116, Table 4): 51%

Ki (CDK2/Cyclin A): 0.3 nM
IC50 (HCT-116 cell line; first HCT-116 column (c4)): 71 nM
IC50 (HCT-116 cell line; second HCT-116 column (c5)): 500 nM
Ki [1]: 0.48 nM
SMILES: Nc1nc(NC2CCN(S(=O)(=O)c3ccc(-c4cccnc4)cc3)CC2)sc1C(=O)c1c(F)cccc1F [Example I8, 1-{4-Amino-2-[1-(4-pyridin-3-yl-benzenesulfonyl)-piperidin-4-ylamino]-thiazol-5-yl}-1-(2,6-difluoro-phenyl)-methanone Trifluoroacetic Acid Salt]

CDK2 % Inhibition at 0.03 μM (CDK2/Cyclin A; 0.03 μM compound, Table 3): 21%
CDK4 % Inhibition at 0.03 μM ([1]; 0.03 μM compound, Table 3): 26%
SMILES: COc1ccc(Cl)cc1S(=O)(=O)N1CCC(Nc2nc(N)c(C(=O)c3c(F)cccc3F)s2)CC1 [Example P56]
HCT-116 % Inhibition at 0.1 μM (HCT-116 cell line; 0.1 μM compound, HCT-116, Table 3): 20%
HCT-116 % Inhibition at 0.25 μM (HCT-116 cell line; HCT-116, Table 3): 34%

Ki (CDK2/Cyclin A): 0.62 nM
IC50 (HCT-116 cell line; first HCT-116 column (c4)): 78 nM
IC50 (HCT-116 cell line; second HCT-116 column (c5)): > 500 nM
Ki [1]: 0.3 nM
SMILES: CN(C)CCSc1ccc(S(=O)(=O)N2CCC(Nc3nc(N)c(C(=O)c4c(F)cccc4F)s3)CC2)cn1 [Example L1, 1-(4-Amino-2-{1-[6-(2-dimethylamino-ethylsulfanyl)-pyridine-3-sulfonyl]-piperidin-4-ylamino}-thiazol-5-yl)-1-(2,6-difluoro-phenyl)-methanone Dihydrochloride.]

Second part, the molecule before the results:

SMILES: Nc1nc(NC2CCN(S(=O)(=O)c3ccc(N4CCN(C=O)CC4)nc3)CC2)sc1C(=O)c1c(F)cccc1F [Example G16, Trifluoroacetic Acid Salt]
Ki (CDK2/Cyclin A): 0.51 nM
IC50 (HCT-116 cell line; first HCT-116 column (c4)): 290 nM
IC50 (HCT-116 cell line; second HCT-116 column (c5)): > 5000 nM
Ki [1]: 0.63 nM

SMILES: Nc1nc(NC2CCN(C(=O)c3ccc(I)cc3)CC2)sc1C(=O)c1c(F)cccc1F [Example C1, {4-Amino-2-[1-(4-iodo-benzoyl)-piperidin-4-ylamino]-thiazol-5-yl}-(2,6-difluoro-phenyl)-methanone]
Ki (CDK2/Cyclin A): 68 nM
IC50 (HCT-116 cell line; first HCT-116 column (c4)): 1200 nM
IC50 (HCT-116 cell line; second HCT-116 column (c5)): 2300 nM
Ki [1]: 11 nM

SMILES: Nc1nc(NC2CCN(C(=S)Oc3ccc(F)cc3)CC2)sc1C(=O)c1c(F)cccc1F [Example R85]
CDK2 % Inhibition at 0.03 μM (CDK2/Cyclin A; at 0.03 μM): 90%
HCT-116 % Inhibition at 0.1 μM (HCT-116 cell line; HCT-116 cells, at 0.1 μM): 0%
HCT-116 5 Inhibition at 0.25 μM (HCT-116 cell line; HCT-116 cells): 47
CDK4 % Inhibition at 0.03 μM ([1]; at 0.03 μM): 81%

SMILES: COc1ccc(/C=C/C(=O)N2CCC(Nc3nc(N)c(C(=O)c4c(F)cccc4F)s3)CC2)c(Cl)c1OC [Example C7, 1-{4-[4-Amino-5-(2,6-difluoro-benzoyl)-thiazol-2-ylamino]-piperidin-1-yl}-3-(2-chloro-3,4-dimethoxy-phenyl)-propenone]
Ki (CDK2/Cyclin A): 32 nM
IC50 (HCT-116 cell line; first HCT-116 column (c4)): 600 nM
IC50 (HCT-116 cell line; second HCT-116 column (c5)): 1600 nM
Ki [1]: 40 nM

SMILES: Nc1nc(NC2CCN(C(=O)Nc3ccc(Oc4ccccc4)cc3)CC2)sc1C(=O)c1c(F)cccc1F [Example O52]
CDK2 % Inhibition At 0.03 μM (CDK2/Cyclin A; 0.03 μM compound): 24%
HCT-116 % Inhibition at 0.25 μM (HCT-116 cell line; HCT-116, Table 2): 33%
CDK4 % Inhibition at 0.03 μM ([1]; 0.03 μM compound, Table 2): 11%

SMILES: N#Cc1cccc(NC(=O)N2CCC(Nc3nc(N)c(C(=O)c4c(F)cccc4F)s3)CC2)c1 [Example O43]
CDK2 % Inhibition At 0.03 μM (CDK2/Cyclin A; 0.03 μM compound): 31%
HCT-116 % Inhibition at 0.25 μM (HCT-116 cell line; HCT-116, Table 2): 12%
CDK4 % Inhibition at 0.03 μM ([1]; 0.03 μM compound, Table 2): 10%

SMILES: Nc1nc(NC2CCN(C(=O)c3ccc(-c4ccccc4)cc3)CC2)sc1C(=O)c1c(F)cccc1F [Example R149]
CDK2 % Inhibition at 0.03 μM (CDK2/Cyclin A; at 0.03 μM): 28%
HCT-116 % Inhibition at 0.1 μM (HCT-116 cell line; HCT-116 cells, at 0.1 μM): 11%
HCT-116 5 Inhibition at 0.25 μM (HCT-116 cell line; HCT-116 cells): 43
CDK4 % Inhibition at 0.03 μM ([1]; at 0.03 μM): 51%

SMILES: CC(C)(Oc1ccc(Cl)cc1)C(=O)N1CCC(Nc2nc(N)c(C(=O)c3c(F)cccc3F)s2)CC1 [Example R66]
CDK2 % Inhibition at 0.03 μM (CDK2/Cyclin A; at 0.03 μM): 16%
HCT-116 % Inhibition at 0.1 μM (HCT-116 cell line; HCT-116 cells, at 0.1 μM): 0.54%
HCT-116 5 Inhibition at 0.25 μM (HCT-116 cell line; HCT-116 cells): 42
CDK4 % Inhibition at 0.03 μM ([1]; at 0.03 μM): 27%
